{
  "source": "patent US20190185865A1",
  "about": "“USE OF PROKARYOTIC TRANSCRIPTIONAL ACTIVATORS AS METABOLITE BIOSENSORS IN EUKARYOTIC CELLS” (Danmarks Tekniske Universitet, priority 2016, published 2019)",
  "molecules": {"B1": {"name": "BenM^H110R, F211V, Y286N (protein, UniProt O68014 1-304, looked up, variant H110R F211V Y286N)", "HTH-type transcriptional …": "MELRHLRYFVAVVEEQSFTKAADKLCIAQPPLSRQIQNLEEELGIQLLERGSRPVKTTPEGHFFYQYAIKLLSNVDQMVSMTKRIASVEKTIRIGFVGSLLFGLLPRIIRLYRQAHPNLRIELYEMGTKAQTEALKEGRIDAGFGRLKISDPAIKRTLLRNERLMVAVHASHPLNQMKDKGVHLNDLIDEKILLYPSSPKPNFSTHVMNIVSDHGLEPTKINEVREVQLALGLVAAGEGISLVPASTQSIQLFNLSYVPLLDPDAITPIYIAVRNMEESTYIYSLNETIRQIYAYEGFTEPPNW"}, "B2": {"name": "ArgP: LTTR transcriptional activator from Escherichia coli, co-inducer L-arginine (protein, UniProt P0A8S1 1-297, looked up)", "HTH-type transcriptional …": "MKRPDYRTLQALDAVIRERGFERAAQKLCITQSAVSQRIKQLENMFGQPLLVRTVPPRPTEQGQKLLALLRQVELLEEEWLGDEQTGSTPLLLSLAVNADSLATWLLPALAPVLADSPIRLNLQVEDETRTQERLRRGEVVGAVSIQHQALPSCLVDKLGALDYLFVSSKPFAEKYFPNGVTRSALLKAPVVAFDHLDDMHQAFLQQNFDLPPGSVPCHIVNSSEAFVQLARQGTTCCMIPHLQIEKELASGELIDLTPGLFQRRMLYWHRFAPESRMMRKVTDALLDYGHKVLRQD"}},
  "key": {"MdcR": {"tested_on": "MdcR", "experiment": "Malonic acid induction of MdcR-mediated GFP expression in yeast", "type": "cell-based", "settings": "MdcR from TDH3 promoter, MAE1 transporter; 10 mM malonic acid", "method": "(§1) Events were analyzed using FlowJo software (TreeStar Inc.).\n(§2) The genetic device developed in this study represents to the best of our knowledge the first example of transplanting a prokaryotic transcriptional activator into a eukaryotic chassis and successfully using it to activate gene expression without the need for modifying the protein beyond codon optimization. […] To test the generality of the biosensor design for onboarding other small-molecule binding transcriptional activators as biosensors in yeast we selected four other candidates from the LTTR family; FdeR from Herbaspirillum seropedicae, PcaQ from Sinorhizobium meliloti, ArgP from Escherichia coli, and MdcR from Klebsiella pneumonia, with co-inducers naringenin, protocatechuic acid (PCA), L-arginine, and malonic acid, respectively. In this proof-of-principle study we selected the four candidates based on a minimal set of information, including knowledge about operator sequences, experimental evidence for ligand-inducible control of target operons, and their mode-of-action within native chassis (ie. activation, FIG. 1). Furthermore all of these metabolites can passively diffuse across the yeast plasma membrane, with the exception of malonic acid, which requires the expression of the dicarboxylic acid transporter MAE1 from Schizosaccharomyces pombe. […]"}, "ArgP": {"molecular_target": "T1, ArgP (Escherichia coli, UniProt P0A8S1)", "T1 construct": "expressed in transfected cells; host or cells: Saccharomyces cerevisiae CEN.PK113-5A; REV1p or TDH3p, chromosomal integration (TISNO-66/-73)", "experiment": "L-arginine induction of ArgP-mediated GFP expression in yeast", "type": "cell-based", "settings": "30 mM L-arginine", "method": "as §1, §2"}, "[1]": {"experiment": "Solubility in growth medium", "type": "physicochemical", "settings": "aqueous buffer, read-out: concentrations of naringenin soluble in growth medium"}, "FdeR": {"tested_on": "FdeR", "experiment": "Naringenin induction of FdeR-mediated GFP expression in yeast", "type": "cell-based, Saccharomyces cerevisiae", "from_the_text": "Strains, chemicals and media. Saccharomyces cerevisiae CEN.PK102-5B (MATa ura3-52 his3Δ1 leu2-3/112 MAL2-8^c SUC2), CEN.PK113-5A (MATa, trp1 his3Δ1 leu2-3/112 MAL2-8^c SUC2) and CEN.PK113-7D (wild type, MATa MAL2-8^c SUC2) strains were obtained from Peter Kotter (Johann Wolfgang Goethe-University Frankfurt, Germany). In principal any other yeast strains may be used, such as one obtained from public repository EuroScarf. EasyClone plasmids used in this work are described in Jensen, N. B. et al. EasyClone: method for iterative chromosomal integration of multiple genes in Saccharomyces cerevisiae. FEMS Yeast Res. 14, 238-48 (2014). Escherichia coli strain DH5a was used as a host for cloning and plasmid propagation. The chemicals and Pfu TURBO DNA polymerase were commercially obtained (Sigma-Aldrich and Agilent Technologies Inc., respectively). All acids used were >97% in purity. S. cerevisiae cells were grown at 30° C. in synthetic complete medium as well as drop-out media and agar plates were prepared using pre-mixed drop-out powders (Sigma-Aldrich). Mineral medium was freshly prepared as described previously. For all media containing diacids, 1.4 mM of the individual diacids were dissolved in mineral medium and pH adjusted to 4.5 before sterile filtration. For CCM several dilutions were made to examine the performance of the CCM biosensor. For naringenin, mineral medium was supplemented with 0, 0.05, 0.10 or 0.20 mM naringenin, dissolved in ethanol, the final ethanol concentration for each medium was 2% (v/v), and the final pH of the medium was adjusted to 6.0. E. coli cells were grown at 37° C. in Luria-Bertani (LB) medium supplemented with 100 μg/mL ampicillin.\nas §1\nThe genetic device developed in this study represents to the best of our knowledge the first example of transplanting a prokaryotic transcriptional activator into a eukaryotic chassis and successfully using it to activate gene expression without the need for modifying the protein beyond codon optimization. […]"}, "yeast transcriptome": {"tested_on": "yeast transcriptome", "experiment": "Transcriptome analysis (RNA-seq) of yeast with or without BenM^H110R, F211V, Y286N", "type": "cell-based, Saccharomyces cerevisiae", "settings": "24 h cultivation in the presence of CCM", "method": "To study the impact of ligand-induced BenM on genome-wide gene expression, triplicate cultures of strains MeLS0138 and MeLS0284 were grown for 24 h at 30° C. in 50 ml mineral medium pH 4.5 with 1.4 mM CCM. […] Briefly, 15 ml samples of the six cultures were harvested into a pre-chilled 50 ml tube with crushed ice and then immediately centrifuged at 4° C., 4000×rpm for 5 min. Subsequently, the pellets were resuspended in 2 ml of RNAlater® Solution (Ambion, Life Technologies) and incubated on ice for 1 h. Next, cells were pelleted by centrifugation (12,000×rpm for 10 s) and transferred to liquid nitrogen, and stored at −80° C. until further analysis. Total RNA extraction was performed using RNeasy® Mini Kit (QIAGEN). […] The quantity and quality of the RNA samples were measured using Qubit 2.0 Fluorometer using the Qubit RNA BR Assay (Thermo Fisher Scientific) and Agilent 2100 Bioanalyzer using the RNA 6000 Nano Kit (Agilent Technologies), respectively. For sequencing we used 3 μg of total RNA as input for TruSeq® Stranded mRNA Sample Preparation kit prior to sequencing on the MiSeq System using MiSeq Reagent Kit v3 150 cycles at a 2×75 bp read length configuration (Illumina) obtaining 38 M reads. […]"}, "209 bp_CYC1p_T1 promoter": {"tested_on": "209 bp_CYC1p_T1 promoter", "experiment": "LTTR-mediated activation of GFP expression from 209 bp_CYC1p_T1 reporter promoter in yeast, without ligand", "type": "cell-based, Saccharomyces cerevisiae", "settings": "LTTR expressed from weak REV1p promoter", "method": "as §1, §2"}, "[2]": {"tested_on": "209 bp_CYC1p_T1 promoter with MdcO or ArgO", "experiment": "Cross-reactivity of LTTRs ArgP and MdcR with operators MdcO and ArgO (flow cytometry)", "type": "cell-based, Saccharomyces cerevisiae", "settings": "ArgP and MdcR with 209 bp_CYC1p_T1 carrying MdcO or ArgO", "from_the_text": "Many of the characterized LTTRs regulate operons by binding prototypic LTTR box patterns 5′-T-N11-A-3′ and 5′-TTA-N7/8-GAA-3′. In addition to transcriptional orthogonality (FIG. 3b), we therefore further tested if individual LTTRs would cross-react with operators for another LTTR. For this purpose, we expressed LTTRs ArgP and MdcR together with the 209 bp_CYC1p_T1 promoter with operators for MdcR (herein MdcO) or ArgP (herein ArgO) driving the expression of GFP. As controls we tested GFP expression from 209 bp_CYC1p_T1 promoter with MdcO or ArgO without expression of LTTRs. […] This is in agreement with another study on cross-reactivity between promoter and transcriptional regulators of the TetR family, and the fact that LTTR residues in both the conserved N-terminal DNA-binding domains and the divergent EBDs are important for DNA-binding."}},
  "data": [
    {"molecule": "O=C(O)CC(=O)O", "note": "[malonic acid]", "values": [
      {"measurement": "induction of GFP expression upon addition of cognate inducer", "setting": "MdcR", "result": "further induce GFP expression"}
    ]},
    {"molecule": "N=C(N)NCCC[C@H](N)C(=O)O", "note": "[L-arginine]", "values": [
      {"measurement": "ligand-inducible increase in GFP expression", "setting": "ArgP; ArgP expression controlled by REV1p", "result": "significant ligand-inducible increase in GFP expression"},
      {"measurement": "induction of GFP expression upon addition of cognate inducer", "setting": "ArgP; ArgP from TDH3 promoter", "result": "further induce GFP expression"}
    ]},
    {"molecule": "O=C1C[C@@H](c2ccc(O)cc2)Oc2cc(O)cc(O)c21", "note": "[naringenin]", "values": [
      {"measurement": "solubility", "setting": "[1]", "result": "< 200", "unit": "µM"},
      {"measurement": "induction of GFP expression upon addition of cognate inducer", "setting": "FdeR; FdeR from TDH3 promoter, 0.2 mM naringenin", "result": "further induce GFP expression"},
      {"measurement": "maximum increase in GFP expression", "setting": "FdeR; FdeR from strong TDH3 promoter, 0.2 mM naringenin, 24 h", "result": 1.7, "unit": "fold"},
      {"measurement": "induction of GFP expression", "setting": "FdeR; FdeR from weak REV1 promoter, any of the tested naringenin concentrations", "result": "did not support induction of GFP expression"}
    ]},
    {"molecule": "B1", "values": [
      {"measurement": "average GFP transcript abundance, strain MeLS0284 compared to strain MeLS0138", "setting": "yeast transcriptome", "result": "approximately 27 fold"},
      {"measurement": "decrease in expression level of TCS3", "setting": "yeast transcriptome; P<0.05, >2-fold cut-off", "result": 2.3, "unit": "×"}
    ]},
    {"molecule": "B2", "values": [
      {"measurement": "activation of GFP expression compared to yeast cells without expression of an LTTR", "setting": "209 bp_CYC1p_T1 promoter", "result": 2.2, "unit": "×"},
      {"measurement": "cross-reaction of LTTR with operator for another LTTR", "setting": "[2]", "result": "specificity between LTTR transcriptional activators and their inferred operator"}
    ]}
  ]
}
